Test results published in patent US4367339A, “Substituted N-nitroaniline compounds and inorganic and organic salts thereof useful for enhancing auxiliary branching, canopy flowering and crop yield of plant and as lodging inhibitors therefor” (priority 1980, dated 1983).
Structures can show the parent of a compound that is named as a salt.

Columns and labels:
[1] = system: soybeans (Glycine max) Adelphia variety; assay: Increasing axillary branching and improving the canopy of broad leaf plants (soybeans); format: in vivo, soybean (Glycine max); conditions: three weeks after treatment
Description: In these tests seedling soybean plants approximately three weeks old, and grown in plastic pots to the 2nd to 3rd trifoliate stage, are sprayed with solutions or dispersions of test compound prepared as described in Example 7 above. The same spraying apparatus, described in Example 7 above, is used and after spraying the plants are placed on greenhouse benches and watered and fertilized. Three weeks after treatment the plants are examined to determine what effect the application of test compound has had on the axillary branching and canopy development of the treated plants.
Increased axillary branching and improved canopy are biological responses which are highly advantageous in the growing of ornamental plants. These responses also have advantage in many crops since increased branching may result in the greater production of fruit, while improved canopy tends to shade and suppress the growth of undesirable weeds that compete with the crops for sunlight, water and plant nutrients. Data obtained are reported in table VII below where axillary branching and canopy are reported as percent increase over untreated controls.

[2] = system: soybean (Glycine max) Adelphia; assay: Dwarfing and stem stiffening of soybeans (plant height, greenhouse, foliar spray); format: in vivo; conditions: three weeks after spraying
Method: (§1) In the following tests, test compounds are dissolved or dispersed in acetone-water (1:1) mixtures at the final concentration corresponding to the kg/ha rates indicated in the table below. The solution also contains 0.25% v/v colloidal BIOFILM® (a product of Colloidal Products Corp.) which is a mixture of alkyl aryl polyethoxyethanol, free and combined fatty acids, glycol ethers, dialkylbenzene carboxylate and 2-propanol.
(§2) The plant species used in these tests are barley (Hordeum vulgare), (Mexico) and soybean (Glycine max)Adelphia.
(§3) The solution or dispersion of the compound under test is sprayed at a rate of 747 l/ha with a moving nozzle along an overhead stationary track. The spray nozzle moves at a constant speed over the plants.
(§4) The plants are grown in plastic pots, and are well established at the time of treatment. The seedlings of barley are 10 to 20 cm in height, while the seedlings of soybeans are at the second to third trifoliate stage. Plants are watered prior to treatment and then sprayed to provide the kg/ha rate of test compound desired. After spraying the plants are placed on greenhouse benches and watered and fertilized in accordance with normal greenhouse procedures.
(§5) Three weeks after spraying the plants are measured and harvested. Harvesting is done at the boot stage. All treatments are replicated six times and comparisons are made against untreated controls. Data obtained are reported in Table VI below as percent reduction in plant height over untreated controls.

barley (Hordeum vulgare) = assay: Dwarfing of barley (plant height, greenhouse, foliar spray); format: in vivo; conditions: three weeks after spraying
Method: as §1, §2, §3, §4, §5

[3] = rate 0.125 kg/ha, listed as Methylamine salt with 2,4,6-tribromo-N--aci-nitroaniline

In the case of “3-(p-Fluorophenyl)-1,2-dimethyl-3,5-diphenylpyrazolium salt with 2,4,6-tribromo-N--aci-nitroaniline”, the “% Increase in Plant Canopy over untreated controls” value (shortened to “% Increase in Plant Canopy”) ([1]; rate 0.125 kg/ha) is reported as “normal”, the “% Increase in axillary branching over untreated controls” value (“% Increase in axillary branching” for short) ([1]; rate 0.125 kg/ha) is reported as “normal” and the “% Increase in axillary branching” value ([1]; rate 0.5 kg/ha) is reported as “normal”.
In the case of `Cc1cc(C)c([N-][N+](=O)[O-])c(C)c1.Cn1c(-c2ccccc2)cc(-c2ccccc2)[n+]1C` [1,2-Dimethyl-3,5-diphenylpyrazolium salt with 2,4,6-Trimethyl-N--aci-nitroaniline], the “% Reduction in Plant Height over untreated controls” value (from here on “% Reduction in Plant Height”) ([2]; rate 0.125 kg/ha) is reported as “slight increase”, the “% Reduction in Plant Height” value ([2]; rate 0.25 kg/ha) is reported as greater than 5% and the “% Reduction in Plant Height” value ([2]; rate 0.5 kg/ha) is reported as greater than 10%. For the same molecule, the “% Increase in Plant Canopy” value ([1]; rate 0.125 kg/ha) was “normal” and the “% Increase in axillary branching” value ([1]; rate 0.125 kg/ha) was “normal”.
`Cn1c(-c2ccccc2)cc(-c2ccccc2)[n+]1C.O=[N+]([O-])[N-]c1c(Br)cc(Cl)cc1Br` [1,2-Dimethyl-3,5-diphenylpyrazolium salt with 2,6-dibromo-4-chloro-N--aci-nitroaniline] was tested, and the “% Reduction in Plant Height” value ([2]; rate 0.125 kg/ha) was greater than 25%, the “% Reduction in Plant Height” value ([2]; rate 0.25 kg/ha) was greater than 30% and the “% Reduction in Plant Height” value ([2]; rate 0.5 kg/ha) was greater than 40%. For the same molecule, the “% Increase in Plant Canopy” value ([1]; rate 0.125 kg/ha) was “normal”.
In the case of `O=[N+]([O-])Nc1c(Br)cc(Br)cc1Br` [1-Hexadecylpyridinium salt with 2,4,6-tribromo-N--aci-nitroa], the “% Increase in Plant Canopy” value ([1]; rate 0.125 kg/ha) is reported as “normal”, the “% Increase in axillary branching” value ([1]; rate 0.125 kg/ha) is reported as “normal” and the “% Increase in axillary branching” value ([1]; rate 0.25 kg/ha) is reported as “normal”. The “% Increase in axillary branching” value ([1]; rate 0.5 kg/ha) was “normal”.
With `O=[N+]([O-])Nc1c(Br)cc(Br)cc1Br` [2,4,6-Tribromo-N--nitroaniline tetrabutyl, ammonium salt] the “% Reduction in Plant Height” value (barley (Hordeum vulgare); rate 0.17 kg/ha, ammonium salt) was 10.5% and the “% Reduction in Plant Height” value (barley (Hordeum vulgare); rate 1.5 kg/ha, ammonium salt) was 15.8%.
`O=[N+]([O-])Nc1c(Br)cc(Br)cc1Br` [2,4,6-Tribromo-N--nitroaniline with ammonia (1:1)] was tested, and the “% Reduction in Plant Height” value (barley (Hordeum vulgare); rate 0.50 kg/ha) was 16.3%, the “% Reduction in Plant Height” value (barley (Hordeum vulgare); rate 1.5 kg/ha) was 15.3% and the “% Reduction in Plant Height” value ([2]; rate 0.5 kg/ha) was greater than 60%. For the same molecule, the “% Reduction in Plant Height” value ([2]; rate 2.0 kg/ha) was greater than 60% and the “% Increase in Plant Canopy” value ([1]; rate 0.5 kg/ha) was “Injury”.
`O=[N+]([O-])Nc1c(Br)cc(Br)cc1Br` [2,4,6-Tribromo-N--nitroaniline with methylamine (1:1)] was tested, and the “% Reduction in Plant Height” value (barley (Hordeum vulgare); rate 0.11 kg/ha) was 10%, the “% Reduction in Plant Height” value (barley (Hordeum vulgare); rate 0.56 kg/ha) was greater than 50% and the “% Reduction in Plant Height” value (barley (Hordeum vulgare); rate 2.24 kg/ha) was greater than 50%. For the same molecule, the “% Reduction in Plant Height” value ([2]; rate 0.5 kg/ha) was greater than 60%, the “% Reduction in Plant Height” value ([2]; rate 2.0 kg/ha) was greater than 60% and the “% Increase in Plant Canopy” value [1, 3] was “normal”. The “% Increase in axillary branching” value [1, 3] was “normal”, the “% Increase in axillary branching” value ([1]; rate 0.25 kg/ha, listed as Methylamine salt with 2,4,6-tribromo-N--aci-nitroaniline) was “normal” and the “% Increase in axillary branching” value ([1]; rate 0.5 kg/ha, listed as Methylamine salt with 2,4,6-tribromo-N--aci-nitroaniline) was “normal”.
`O=[N+]([O-])Nc1c(Br)cc(Br)cc1Br` [2,4,6-Tribromo-N--nitroaniline with octylamine (1:1)] was tested, and the “% Reduction in Plant Height” value (barley (Hordeum vulgare); rate 0.17 kg/ha) was 10.5%, the “% Reduction in Plant Height” value (barley (Hordeum vulgare); rate 0.50 kg/ha) was 13.0% and the “% Reduction in Plant Height” value (barley (Hordeum vulgare); rate 1.5 kg/ha) was 11.1%. For the same molecule, the “% Increase in axillary branching” value ([1]; rate 0.125 kg/ha, octylamine salt) was “normal” and the “% Increase in Plant Canopy” value ([1]; rate 0.5 kg/ha, octylamine salt) was “slight reduction”.
`O=[N+]([O-])Nc1c(Br)cc(Br)cc1Br` [2,4,6-Tribromo-N--nitroaniline, Calcium salt] was tested, and the “% Increase in Plant Canopy” value ([1]; rate 0.25 kg/ha, listed as 2,4,6-Tribromo-N--aci-nitroaniline calcium salt (2:1), Calcium salt) was “slight reduction” and the “% Increase in Plant Canopy” value ([1]; rate 0.5 kg/ha, listed as 2,4,6-Tribromo-N--aci-nitroaniline calcium salt (2:1), Calcium salt) was “moderate reduction”.
`O=[N+]([O-])Nc1c(Br)cc(Br)cc1Br` [2,4,6-Tribromo-N--nitroaniline, diisopropylamine (1:1)salt] was tested, and the “% Increase in Plant Canopy” value ([1]; rate 0.5 kg/ha) was “slight reduction”.
In the case of `O=[N+]([O-])Nc1c(Br)cc(Br)cc1Br` [2,4,6-Tribromo-N--nitroaniline, magnesium salt], the “% Increase in Plant Canopy” value ([1]; rate 0.25 kg/ha, listed as 2,4,6-Tribromo-N--aci-nitroaniline, magnesium salt (2:1)) is reported as “moderate reduction” and the “% Increase in Plant Canopy” value ([1]; rate 0.5 kg/ha, listed as 2,4,6-Tribromo-N--aci-nitroaniline, magnesium salt (2:1)) is reported as “moderate reduction”.
For `O=[N+]([O-])Nc1c(Br)cc(Br)cc1Br` [2,4,6-Tribromo-N--nitroaniline, triethylamine (1:1)salt], the “% Increase in axillary branching” value ([1]; rate 0.125 kg/ha) was “normal”, the “% Increase in Plant Canopy” value ([1]; rate 0.25 kg/ha) was “slight reduction” and the “% Increase in Plant Canopy” value ([1]; rate 0.5 kg/ha) was “slight reduction”.
For `Cn1c(-c2ccccc2)cc(C2CCCCC2)[n+]1C.O=[N+]([O-])[N-]c1c(Br)cc(Br)cc1Br` [3-Cyclohexyl-1,2-dimethyl-5-phenylpyrazolium salt with 2,4,6-tribromo-N--aci-nitroaniline], the “% Reduction in Plant Height” value ([2]; rate 0.125 kg/ha) was greater than 10%, the “% Reduction in Plant Height” value ([2]; rate 0.25 kg/ha) was greater than 20% and the “% Reduction in Plant Height” value ([2]; rate 0.5 kg/ha) was greater than 40%. For the same molecule, the “% Increase in Plant Canopy” value ([1]; rate 0.5 kg/ha) was “slight reduction”.
In the case of `O=[N+]([O-])Nc1c(Br)cc(Br)cc1Br` [Benzyltriethylammonium salt with 2,4,6-tribromo-N--aci-nitro] [Benzyltriethylammonium salt with 2,4,6-tribromo-N--aci-nitroaniline], the “% Reduction in Plant Height” value ([2]; rate 0.125 kg/ha) is reported as greater than 25%, the “% Reduction in Plant Height” value ([2]; rate 0.25 kg/ha) is reported as greater than 35% and the “% Reduction in Plant Height” value ([2]; rate 0.5 kg/ha) is reported as greater than 50%. The “% Increase in Plant Canopy” value ([1]; rate 0.125 kg/ha) was “normal”, the “% Increase in axillary branching” value ([1]; rate 0.125 kg/ha) was “normal” and the “% Increase in axillary branching” value ([1]; rate 0.25 kg/ha) was “normal”.
For `O=[N+]([O-])Nc1c(Br)cc(Br)cc1Br` [Dodecylamine with 2,4,6-tribromo-N--nitroaniline], the “% Reduction in Plant Height” value ([2]; rate 0.125 kg/ha) was greater than 15%, the “% Reduction in Plant Height” value ([2]; rate 0.25 kg/ha) was greater than 25% and the “% Reduction in Plant Height” value ([2]; rate 0.5 kg/ha) was greater than 35%.
`CCCC[P+](CCCC)(CCCC)Cc1ccc(Cl)cc1Cl.O=[N+]([O-])[N-]c1c(Br)cc(Br)cc1Br` [Tributyl(2,4-dichlorobenzyl) phosphonium salt with 2,4,6-tribromo-N--aci-nitroaniline] was tested, and the “% Increase in Plant Canopy” value ([1]; rate 0.125 kg/ha) was “normal”, the “% Increase in axillary branching” value ([1]; rate 0.125 kg/ha) was “normal” and the “% Increase in Plant Canopy” value ([1]; rate 0.5 kg/ha) was “moderate reduction”.
“Tributyl(2,4-dichlorobenzyl)phosphonium salt with aniline” was tested, and the “% Reduction in Plant Height” value ([2]; rate 0.125 kg/ha) was greater than 8%, the “% Reduction in Plant Height” value ([2]; rate 0.25 kg/ha) was greater than 25% and the “% Reduction in Plant Height” value ([2]; rate 0.5 kg/ha) was greater than 50%.
